Columns and labels:
apomyoglobin = biological target: T1, apomyoglobin (Physeter macrocephalus, UniProt P02185); assay: Hydrolysis of p-nitrophenyl alkanoates catalysed by apomyoglobin (absorbance at 400 nm); format: biochemical, sperm whale; settings: for k2 /KM (catalytic constant) / k2 /Kun (enhancement over rate in the absence of apomyoglobin) / K2 / kobs: 25° C.; for k2 /KM (catalytic constant) / k2 /Kun (enhancement over rate in the absence of apomyoglobin) / K2: pH 8; for K2: Lineweaver Burk; for kobs: pH 8, 0.05 M TRIS
T1 construct: purchased
T1 sequence (P02185 whole entry): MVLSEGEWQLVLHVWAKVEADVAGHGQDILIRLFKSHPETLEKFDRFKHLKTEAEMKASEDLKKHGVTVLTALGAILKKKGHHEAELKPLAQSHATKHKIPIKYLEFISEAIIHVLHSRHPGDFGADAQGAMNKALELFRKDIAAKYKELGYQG
Experimental: Preparation of Apomylglobin. The heme group was removed from sperm whale metmyoglobin by the acid acetone method of Rossi-Fanelli and coworkers, op. cit., from a commercially available sample which was not purified prior to use.
(§1) Hydrolysis of p-Nitrophenyl Alkanoates. The experimental methods used in the hydrolysis of these esters is exemplified by the hydrolysis of p-nitrophenyl caproate. Kinetic runs were performed with the semisynthetic enzyme, apomyoglobin, in excess of the substrate. All hydrolyses were done in 99.9% aqueous media at 25° C. at pH 8 using 0.05 molar tris(hydroxymethyl)aminomethane(TRIS) as a buffer. Each sample cuvette containing varying concentrations of apomyoglobin (Eo) in 1 ml of 0.05M buffer was allowed to equilibrate at 25° C. in a thermostated cell holder of a spectrophotometer. To this was added 1 microliter of 1.13×10^-2 M p-nitrophenyl caproate in ethanol and the contents thereafter were mixed well. The increase in absorbance at 400 nm arising from the p-nitrophenolate ion was monitored as a function of time until hydrolysis was complete.
(§2) In the absence of apomyoglobin the hydrolysis of a solution of 1.13×10^-5 M of the same ester under the same conditions proceeded with the rate constant of 2.7×10^-5 sec^-1. The enhancement achieved with the semisynthetic enzyme is therefore 1800.
Where the same type of experiment yielded a decrease in catalysis rate in those instances the deacylation may become rate limiting. Some results of ester hydrolysis catalyzed by apomyoglobin are summarized in Table 2, where k2 /kM is often referred to as the "catalytic constant," and kun is the hydrolytic rate constant in the absence of apomyoglobin.

[1] = Denaturation (stability) of the apoprotein under reaction conditions; format: physicochemical, sperm whale
Experimental: The reaction temperature also is dictated by stability of the semisynthetic enzyme. When apoprotein derived from, e.g., sperm whale myoglobin is used, it often is denatured substantially at a temperature in excess of about 40° C., and consequently its use is recommended at a temperature under about 40° C. However, it needs to be emphasized that even where the semisynthetic enzyme is denatured at a higher temperature it can be used so long as its denaturation is slower than hydrolysis, although no reuse may be possible.
Finally, the pH at which the hydrolysis is performed also is dictated by the denaturation properties of the semisynthetic enzyme. For example, where the apoprotein is derived from sperm whale myoglobin a pH range between about 6.5 and about 9 is found to cause little if any denaturation.

[2] = tested on: apomyoglobin (denatured, 8 molar urea); assay: Hydrolysis of p-nitrophenyl acetate with apomyoglobin denatured in 8 molar urea; format: biochemical, sperm whale; settings: after 150 seconds, apomyoglobin solution also 8 molar in urea
Experimental: To ascertain that our remarkable catalytic rates result from the active site only of the empty heme pocket or cavity the following experiments were performed. In the first experiment reconstituted myoglobin was prepared from apomyoglobin and hemin, and the hydrolysis of p-nitrophenyl caproate was determined as previously described. […] This eliminates the possibility that periperal lysine and histidine residues catalyze hydrolysis. In the second experiment the rate of hydrolysis of a solution of p-nitrophenyl acetate in buffer containing apomyoglobin, prepared as described above, was compared with the rate of hydrolysis in a similar solution which was also 8 molar in urea to ensure denaturation of apomyoglobin. After 150 seconds the reaction was 98% complete in the first solution, but only 2% complete in the urea-containing solution.

[3] = Hydrolysis of the ester in the absence of apomyoglobin (spontaneous rate); format: physicochemical; settings: 1.13×10^-5 M ester, 25° C., pH 8, 0.05 M TRIS
Experimental: as §1, §2

reconstituted myoglobin = assay: Hydrolysis of p-nitrophenyl caproate with reconstituted myoglobin (apomyoglobin and hemin); format: biochemical, sperm whale; settings: reconstituted myoglobin from apomyoglobin and hemin
Experimental: as §1
To ascertain that our remarkable catalytic rates result from the active site only of the empty heme pocket or cavity the following experiments were performed. In the first experiment reconstituted myoglobin was prepared from apomyoglobin and hemin, and the hydrolysis of p-nitrophenyl caproate was determined as previously described. […] This eliminates the possibility that periperal lysine and histidine residues catalyze hydrolysis. […]

| Compound | k2 /KM (catalytic constant) (apomyoglobin) | k2 /Kun (enhancement over rate in the absence of apomyoglobin) (apomyoglobin) | K2 (apomyoglobin) | other results |
| --- | --- | --- | --- | --- |
| CCCCCCCCCC(=O)Oc1ccc([N+](=O)[O-])cc1 [Caprate] | 49 M⁻¹ s⁻¹ | 4600 | 0.03 s⁻¹ | – |
| apoprotein derived from, e.g., sperm whale myoglobin: sperm whale metmyoglobin from which the heme group was removed by the acid acetone method; semisynthetic esterase | – | – | – | temperature above which substantially denatured [1]: > 40 °C |
| CCCCCC(=O)Oc1ccc([N+](=O)[O-])cc1 [Caproate, p-nitrophenyl caproate] | 67 M⁻¹ s⁻¹ | 1800 | 0.0493 s⁻¹ | kobs (apomyoglobin; Eo 2.11 (10^-5 M) apomyoglobin): 1.08 10^-2 sec^-1; kobs (apomyoglobin; Eo 4.23 (10^-5 M) apomyoglobin): 1.84 10^-2 sec^-1; kobs (apomyoglobin; Eo 6.35 (10^-5 M) apomyoglobin): 2.21 10^-2 sec^-1; kobs (apomyoglobin; Eo 8.46 (10^-5 M) apomyoglobin): 2.63 10^-2 sec^-1; kobs (apomyoglobin; Eo 10.6 (10^-5 M) apomyoglobin): 2.83 10^-2 sec^-1; K2 (apomyoglobin; listed as p-nitrophenyl caproate): 0.0493 s⁻¹; rate constant of hydrolysis in the absence of apomyoglobin [3]: 2.7e-05 s⁻¹; hydrolysis rate relative to the spontaneous (uncatalyzed) rate (reconstituted myoglobin): not more than twice that of the spontaneous (uncatalyzed) rate |

Continued, in another order:

| k2 /KM (catalytic constant) (apomyoglobin) | k2 /Kun (enhancement over rate in the absence of apomyoglobin) (apomyoglobin) | K2 (apomyoglobin) | Compound | other results |
| --- | --- | --- | --- | --- |
| 6.4 M⁻¹ s⁻¹ | 42 | – | CCC(=O)Oc1ccc([N+](=O)[O-])cc1 | – |
| 26.4 M⁻¹ s⁻¹ | 127 | 0.0038 s⁻¹ | CCCC(=O)Oc1ccc([N+](=O)[O-])cc1 [Butyrate] | – |
| 13.5 M⁻¹ s⁻¹ | 134 | 0.0058 s⁻¹ | CC(=O)Oc1ccc([N+](=O)[O-])cc1 [Acetate, p-nitrophenyl acetate] | rate of hydrolysis by 5×10^-5 M apomyoglobin versus apomyoglobin first reacted with 5×10^-5 M ester to 95% completion (apomyoglobin; 1×10^-5 M ester): identical; reaction completion (apomyoglobin; after 150 seconds, buffer containing apomyoglobin): 98%; Turnover (k3 versus k2) (apomyoglobin; rate with fresh apomyoglobin compared with pre-reacted apomyoglobin): k3 is much greater than k2; reaction completion [2]: 2% |

From patent US4764464A, “Semisynthetic enzymes: apoproteins from heme proteins as hydrolases” (priority 1986, dated 1988)
